# According to patent publication EP4793267A1, “CARBONATE CONTAINING LIPID COMPOUNDS AND COMPOSITIONS FOR INTRACELLULAR DELIVERY OF THERAPEUTIC AGENTS” (ModernaTX, Inc., priority 2019, dated 2021):
# Columns and labels:
# [1] = tested on: hepatocyte protein expression (hEPO); experiment: Expression of hEPO induced by LNPs comprising the lipid and hEPO mRNA in mice; type: in vivo; conditions: LNP with DSPC, cholesterol, PEG-1, mRNA encoding hEPO, CD-1 mice; for hEPO AUC: intravenous; for Mean 6 hr hEPO Concentration (mIU/mL): serum, 6 h after intravenous injection
# Experimental: (§1) To assess potency of expression and metabolic stability of lipids of the disclosure the hepatocyte protein expression (hEPO) following administration of a nanoparticle of the disclosure (e.g., a loaded LNP) to mice was measured.
# (§2) Lipid nanoparticles (LNPs) including DSPC as a phospholipid, cholesterol as a structural lipid, PEG-1 as a PEG lipid, a compound according to Formula (A), (A1), (A2), (A3), (B), (1), (I'), (I-X), (I-Y), (I-Ya) (IA), (Ia), (Ib), (Ic), (Id), (Ie), (If), (Ig), (II), (IIa), or (IIb), and an mRNA encoding hEPO were intravenously administered to CD-1 mice. The concentration of hEPO in serum was tested at 6 h after injection. […] Table 2. Expression of hEPO induced by administration of LNPs comprising lipids of the disclosure in mice and residual lipid levels in the liver.
# [2] = Residual parent lipid levels in the liver after LNP administration to mice; type: in vivo; conditions: 24 h after intravenous LNP administration, CD-1 mice
# Experimental: as §1, §2
Parent Lipid Remaining (nmol/g liver tissue) at 24 h [2] [nmol/g liver tissue],SMILES,hEPO AUC [1],Mean 6 hr hEPO Concentration (mIU/mL) [1] [mIU/mL]
3 ± 1,"CCCCCCCCCOC(=O)OCCCCCCN(CCO)CCCCCCCC(=O)OC(CCCCCCCC)CCCCCCCC [Compound 6, Heptadecan-9-yl 8-((2-hydroxyethyl)(6-(((nonyloxy)carbonyl)oxy)hexyl)amino)octanoate]",8.19E+06,509181.4
67 ± 8,"CCCCCCCCC(CCCCCCCC)OC(=O)CCCCCCCN(CCO)CCCCCCOC(=O)OCCC(CCCCCC)CCCCCC [Compound 66, Heptadecan-9-yl 8-((6-((((3-hexylnonyl)oxy)carbonyl)oxy)hexyl)(2-hydroxyethyl)amino)octanoate]",9.77E+06,641899.1
94 ± 15,"CCCCCCCCC(CCCCCCCC)OC(=O)CCCCCCCN(CCCCCCOC(=O)OCCC(CCCCC)CCCCC)CCCNc1c(NC)c(=O)c1=O [Compound 67, Heptadecan-9-yl 8-((3-((2-(methylamino)-3,4-dioxocyclobut-1-en-1-yl)amino)propyl)(6-((((3-pentyloctyl)oxy)carbonyl)oxy)hexyl)amino)octanoate]",1.31E+07,891982.2
72 ± 17,"CCCCCCCCC(CCCCCCCC)OC(=O)CCCCCCCN(CCO)CCCCCCOC(=O)OCCC(CCCCC)CCCCC [Compound 64, Heptadecan-9-yl 8-((2-hydroxyethyl)(6-((((3-pentyloctyl)oxy)carbonyl)oxy)hexyl)amino)octanoate]",1.11E+07,735556.2
364 ± 58,"CCCCCCCCC(CCCCCCCC)OC(=O)CCCCCCCN(CCCCCCOC(=O)OCCC(CCCCCC)CCCCCC)CCCNc1c(NC)c(=O)c1=O [Compound 65, Heptadecan-9-yl 8-((6-((((3-hexylnonyl)oxy)carbonyl)oxy)hexyl)(3-((2-(methylamino)-3,4-dioxocyclobut-1-en-1-yl)amino)propyl)amino)octanoate]",7.76E+06,521341.6
